Test results as given in patent publication US20030109418A1, “Methods for identifying compounds for inhibition of neoplastic lesions, and pharmaceutical compositions containing such compounds” (priority 1999, published 2003).
pEC50, pIC50: −log10 of the molar value. Read-outs that look alike come from different tables or passages of the source.

Columns and labels:
[1] = target: T1, purified cyclooxygenase (Type 1, COX-I) from ram seminal vesicles (Ovis aries, UniProt P05979); test: COX inhibition assay, purified cyclooxygenase; assay type: biochemical; conditions: for COX Inhibition: qualitative activity profile; for inhibition at 100 µM: read-out: Cyclooxygenase inhibitory activity, % Inhibition at 100 μM
T1 construct: using purified cyclooxygenase from ram seminal vesicles as described previously; tissue Cayman Chemical, Ann Arbor, Mich; (named in the general protocol only); host or cells: ram seminal vesicles
T1 sequence (P05979 25-600): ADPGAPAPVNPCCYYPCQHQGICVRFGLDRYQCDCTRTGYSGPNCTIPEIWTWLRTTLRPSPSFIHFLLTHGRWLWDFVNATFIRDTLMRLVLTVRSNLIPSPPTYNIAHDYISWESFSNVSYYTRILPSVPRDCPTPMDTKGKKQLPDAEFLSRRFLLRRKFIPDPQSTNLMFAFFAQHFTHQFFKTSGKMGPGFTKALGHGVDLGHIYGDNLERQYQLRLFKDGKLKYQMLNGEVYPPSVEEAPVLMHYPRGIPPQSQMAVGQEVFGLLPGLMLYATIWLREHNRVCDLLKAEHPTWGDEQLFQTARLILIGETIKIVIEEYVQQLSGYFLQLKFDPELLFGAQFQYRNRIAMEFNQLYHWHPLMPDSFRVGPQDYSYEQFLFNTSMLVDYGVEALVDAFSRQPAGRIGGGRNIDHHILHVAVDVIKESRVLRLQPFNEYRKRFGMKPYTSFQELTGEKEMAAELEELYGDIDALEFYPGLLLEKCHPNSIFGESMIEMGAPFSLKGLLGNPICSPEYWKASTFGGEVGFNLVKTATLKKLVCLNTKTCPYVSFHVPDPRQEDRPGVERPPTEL

[2] = system: cGMP PDE purified from human colon HT-29 cultured tumor cells; test: cGMP PDE inhibition assay; assay type: biochemical; conditions: for PDE Inhibition: qualitative activity profile; for pIC50: read-out: IC50 for inhibition of cGMP PDE, HT-29 cell enzyme
[3] = system: HT-29 colon adenocarcinoma cells; test: Apoptosis by DNA fragmentation assay in HT-29; assay type: cell-based, human; as to Apoptosis: key: −: Not active; +: Slightly active; ++: Moderately active; +++: Strongly active; ++++: Highly active
[4] = system: HT-29 human colon carcinoma cell line; test: Growth inhibition, SRB assay, HT-29; assay type: cell-based; parameters: Growth Inhibition: key to the marks not given beside the values
[5] = system: premalignant lesions in mouse mammary gland organ culture; test: Mammary gland organ culture model; assay type: cell-based; conditions: qualitative activity profile; also: key: −: Not active; +: Slightly active; ++: Moderately active; +++: Strongly active; ++++: Highly active
Source text: Test compounds identified by the above methods can be tested for antineoplastic activity by their ability to inhibit the incidence of pre-neoplastic lesions in a mammary gland organ culture system. This mouse mammary gland organ culture technique has been successfully used by other investigators to study the effects of known antineoplastic agents such as certain NSAIDs, retinoids, tamoxifen, selenium, and certain natural products, and is useful for validation of the screening method of the present invention.
For example, female BALB/c mice can be treated with a combination of estradiol and progesterone daily, in order to prime the glands to be responsive to hormones in vitro. The animals are sacrificed, and thoracic mammary glands are excised aseptically and incubated for ten days in growth media supplemented with insulin, prolactin, hydrocortisone, and aldosterone. DMBA (7,12-dimethylbenz(a)anthracene) is added to medium to induce the formation of premalignant lesions. Fully developed glands are then deprived of prolactin, hydrocortisone, and aldosterone, resulting in the regression of the glands but not the pre-malignant lesions.
The test compound is dissolved in DMSO and added to the culture media for the duration of the culture period. At the end of the culture period, the glands are fixed in 10% formalin, stained with alum carmine, and mounted on glass slides. The incidence of forming mammary lesions is the ratio of the glands with mammary lesions to […]. The incidence of mammary lesions in test compound treated glands is compared with that of the untreated glands.
The extent of the area occupied by the mammary lesions can be quantitated by projecting an image of the gland onto a digitation pad. The area covered by the gland is traced on the pad and considered as 100% of the area. The space covered by each of the non-regressed structures is also outlined on the digitization pad and quantitated by the computer.
Mammary gland organ culture experiment were performed as previously described (Mehta and Moon, Cancer Research, 46: 5832-5835, 1986). […] The data support the hypothesis that cyclooxygenase inhibition is not necessary for the anti-neoplastic properties of desired compounds.

[6] = system: SW-480 colon adenocarcinoma cells
[7] = system: PDE4 purified from human colon HT-29 cultured tumor cells; test: PDE4 inhibition assay; assay type: biochemical; conditions: HT-29 cell enzyme
[8] = target: T2, cGMP binding sites of the GST-cGB-PDE5 protein (Homo sapiens, UniProt O76074); test: cGMP binding assay with GST-cGB-PDE5 fusion protein; conditions: 3H-cGMP 2 μM
T2 construct: made in house; host or cells: E. coli BL21 (DE3)

[9] = system: SW-480 colon adenocarcinoma cells; test: Apoptosis fold induction protocol (DNA fragmentation ELISA); conditions: cell line not given
[10] = target: T3, PDE peak A (PDE5) from SW480 cells (Homo sapiens, UniProt O76074); test: cGMP hydrolysis inhibition, PDE peak A from SW480; assay type: biochemical
T3 construct: endogenous in cells; host or cells: SW480 colon cancer cells, DEAE-Trisacryl M fraction

[11] = target: novel cGMP-specific PDE peak B from SW480 cells (Homo sapiens, UniProt O00408); test: cGMP hydrolysis inhibition, novel PDE peak B (Section IA) from SW480; assay type: biochemical
novel cGMP-specific PDE peak B from SW480 cells, sequence (O00408 2-941): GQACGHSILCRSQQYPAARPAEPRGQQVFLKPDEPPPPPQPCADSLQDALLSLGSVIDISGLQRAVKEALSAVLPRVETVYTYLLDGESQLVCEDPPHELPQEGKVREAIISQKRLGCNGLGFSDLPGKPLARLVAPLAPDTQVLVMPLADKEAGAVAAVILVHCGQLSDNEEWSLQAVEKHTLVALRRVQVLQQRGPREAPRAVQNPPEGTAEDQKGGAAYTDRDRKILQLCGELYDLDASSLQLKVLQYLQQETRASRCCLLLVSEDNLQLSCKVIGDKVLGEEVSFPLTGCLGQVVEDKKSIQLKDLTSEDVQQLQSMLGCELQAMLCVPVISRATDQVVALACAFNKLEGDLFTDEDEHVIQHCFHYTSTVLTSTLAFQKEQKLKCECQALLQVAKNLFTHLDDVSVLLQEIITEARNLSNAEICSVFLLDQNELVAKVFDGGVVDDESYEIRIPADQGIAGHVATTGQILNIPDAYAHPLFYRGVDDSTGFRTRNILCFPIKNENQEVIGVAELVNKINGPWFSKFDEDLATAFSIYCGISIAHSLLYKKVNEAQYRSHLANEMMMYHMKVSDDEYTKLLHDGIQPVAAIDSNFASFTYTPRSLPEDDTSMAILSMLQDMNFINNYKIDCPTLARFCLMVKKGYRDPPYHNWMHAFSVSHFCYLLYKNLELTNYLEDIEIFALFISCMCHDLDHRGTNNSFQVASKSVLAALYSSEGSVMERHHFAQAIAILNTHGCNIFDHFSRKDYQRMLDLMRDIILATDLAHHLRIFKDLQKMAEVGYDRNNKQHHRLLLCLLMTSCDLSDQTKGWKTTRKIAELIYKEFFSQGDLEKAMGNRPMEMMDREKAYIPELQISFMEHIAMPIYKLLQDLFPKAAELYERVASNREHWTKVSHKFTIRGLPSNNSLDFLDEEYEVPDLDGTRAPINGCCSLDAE

Colo 205 = test: Growth inhibition, neutral red assay, Colo 205; assay type: cell-based, human; conditions: Homo sapiens, COLO 205; neutral red assay (Schmid et al.)
Experimental: (§1) Compound I's activity is not confined to activity against colon cancer cell lines or animal models of colon cancer. It has a broad range of anti-neoplastic effects in various neoplastic cell lines. Various types of human cancer cell lines were propagated under sterile conditions in RPMI 1640 medium with 10% fetal bovine serum, 2 mM L-glutamine and sodium bicarbonate. To determine growth inhibitory effects of Compound I, cells were seeded in 96-well plates at a density of 1000 cells per well. Twenty-four hours after plating, the cells were dosed with various concentrations of the free base of Compound I solubilized in DMSO (final concentration 0.1%). The effect of the drug on tumor cell growth was determined using the neutral red cytotoxicity assay following five days of continuous treatment. Neutral red is a dye that is selectively taken up by viable cells by an ATP-dependent transport mechanism.

PC-3 = test: Growth inhibition, neutral red assay, PC-3; assay type: cell-based, human; conditions: Homo sapiens, PC-3; neutral red assay (Schmid et al.); read-out: IC50 (μM), Human Prostate Carcinoma PC3
Experimental: as §1

[12] = system: peak B's from SW480, HTB-26, and LnCAP; test: cGMP PDE activity of peak B's isolated by FPLC; assay type: biochemical; conditions: 100 nM inhibitor
Experimental: The novel Peak B was also isolated from two other neoplastic cell lines, a breast cancer cell line, HTB-26 and a prostate cancer cell line, LnCAP by a procedure similar to the one above used to isolate it from SW480. The protocol was modified in several respects. To provide even greater reproducibility to allow comparison of different cell lines, a Pharmacia AKTA FPLC was used to control sample loading and elution on an 18 mL DEAE TrisAcryl M column. SW840 was run by this same procedure multiple times to provide a reference of peak B. 200-400 million cells of SW480 were used for the profiles. 70 million cells of LnCAP were used for a profile (see FIGS. 22 and 23), and in a separate experiment 32 million cells of HTB-26 were used for a profile (see FIGS. 20 and 21). After re-suspending cells in homogenization buffer, samples were manually homogenized. FPLC buffer A was 8 mM TRIS-acetate, 5 mM Mg acetate, 0.1 mM EDTA, pH 7.5 and buffer B was 8 mM TRIS-acetate, 5 mM Mg acetate, 0.1 mM EDTA, 1 M Na acetate, pH 7.5. Supernatants were loaded onto the column at 1 mL per minute, followed by a wash with 60 mL buffer A at 1 mL per minute. A gradient was run from 0-15% buffer B in 60 mL, 15-50% buffer B in 60 mL, and 50-100% buffer B in 16 mL. During the gradient 1.5 mL fractions were collected.

[13] = target: novel cGMP-specific PDE peak B from SW480 cells (Homo sapiens); test: cGMP hydrolysis inhibition, novel PDE peak B (Section IA) from SW480; assay type: biochemical; conditions: Section IA Peak B, cGMP hydrolysis, 0.25 μM 3H-cGMP
novel cGMP-specific PDE peak B from SW480 cells (Homo sapiens), sequence (O00408 2-941): as above

[14] = target: T4, classic PDE2 (Peak B) from SW480 (Homo sapiens, UniProt O00408); test: Inhibition of classic PDE2 Peak B isolated with ethylene glycol buffers; assay type: biochemical
T4 construct: endogenous in cells; host or cells: SW480 cells, non-FPLC DEAE column with 30% ethylene glycol buffers
T4 sequence (O00408 whole entry): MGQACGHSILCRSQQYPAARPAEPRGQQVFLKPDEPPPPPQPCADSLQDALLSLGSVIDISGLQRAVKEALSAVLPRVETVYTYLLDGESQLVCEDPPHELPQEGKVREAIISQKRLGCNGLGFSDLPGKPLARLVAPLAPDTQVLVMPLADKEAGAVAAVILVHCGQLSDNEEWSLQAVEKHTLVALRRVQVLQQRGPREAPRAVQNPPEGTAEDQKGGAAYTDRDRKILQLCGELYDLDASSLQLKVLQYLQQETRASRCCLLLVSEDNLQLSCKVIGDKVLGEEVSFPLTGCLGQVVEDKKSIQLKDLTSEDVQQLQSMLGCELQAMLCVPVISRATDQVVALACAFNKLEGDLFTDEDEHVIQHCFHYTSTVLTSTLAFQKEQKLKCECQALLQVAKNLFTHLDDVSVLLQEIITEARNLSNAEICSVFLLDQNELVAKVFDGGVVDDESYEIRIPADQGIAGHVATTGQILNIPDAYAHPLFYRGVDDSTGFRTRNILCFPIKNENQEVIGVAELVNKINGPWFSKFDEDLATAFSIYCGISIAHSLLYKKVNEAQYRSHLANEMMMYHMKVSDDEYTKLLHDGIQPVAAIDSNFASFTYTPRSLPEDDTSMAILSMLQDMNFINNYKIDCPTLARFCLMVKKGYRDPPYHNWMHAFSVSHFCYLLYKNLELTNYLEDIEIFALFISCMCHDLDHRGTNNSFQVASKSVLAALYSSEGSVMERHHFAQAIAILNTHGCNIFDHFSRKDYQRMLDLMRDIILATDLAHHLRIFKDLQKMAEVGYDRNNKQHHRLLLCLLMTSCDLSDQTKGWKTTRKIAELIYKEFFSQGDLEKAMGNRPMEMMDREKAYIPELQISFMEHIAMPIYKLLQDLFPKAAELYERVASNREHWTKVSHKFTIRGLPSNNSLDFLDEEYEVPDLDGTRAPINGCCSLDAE
Experimental: A second method used to isolate classic PDE2 from SW480 was done using a non-FPLC DEAE column procedure described above (see Section IA) with the modification that the buffers contained 30% ethylene glycol, 10 mM TLCK and 3.6 mM β-mercaptoethanol. The addition of these reagents to the buffers causes a shift in the elution profile (see FIG. 25) from low to high sodium acetate so that peak A moves from 40 to 150 mM, peak B from 75 to 280 mM and peak C from 200 to 500 mM Na acetate (see FIG. 25).

| Compound | COX Inhibition [1] | cGMP PDE inhibitory activity, % Inhibition at 10 μM [2] | PDE Inhibition [2] | Growth-inhibitory activity, % Inhibition at 100 μM [4] | COX-I inhibition (FIG. 5) [1] | inhibition at 100 µM [1] | pIC50 [2] | pIC50 [7] | competition with cGMP in binding of GST-cGB-PDE5 [8] | also measured |
| --- | --- | --- | --- | --- | --- | --- | --- | --- | --- | --- |
| CCN(CC)CCSC12CC(=O)OC1(C)/C(=C/c1ccc(S(C)(=O)=O)cc1)c1ccc(F)cc12 (racemic) [A, rac-threo-(E)-1-(N,N′-diethylaminoethanethio)-1-(butan-1′,4′-olido)-[3′,4′: 1,2]-6-fluoro-2-methyl-3-(p-methylsulfonylbenzylidene)-indan] | − | <25% | − | 68% |  |  |  |  |  | Cyclooxygenase inhibitory activity, % Inhibition at 100 μM ([1]; 100 μM): <25%; Apoptosis ([3]; qualitative activity profile): ++; Growth Inhibition ([4]; qualitative activity profile): +++; Mammary Gland Organ Culture [5]: ++; Apoptosis-inducing activity, Fold induction at 100 μM [6]: <2.0 fold |
| COc1cc(C=C2C(C)=C(CC(=O)O)c3cc(F)ccc32)cc(OC)c1OC [Compound B, (Z)-5-Fluoro-2-methyl-1-(3,4,5-trimethoxybenzylidene)-3-acetic acid] | − | <25% | +++ |  | neither test compound B and E significantly inhibit COX-I | < 25% | 4.74 | 4.24 | do not bind to the cGMP binding sites of PDE5 | pEC50 ([3]; Homo sapiens, HT-29, 48 hours): ~3.76; fold induction at 100 µM ([9]; Homo sapiens, SW480, read-out: Apoptosis-inducing activity, Fold induction at 100 μM, 100 μM): > 2 |
| COc1cc(/C=C2/C(C)=C(CC(=O)NCc3ccccc3)c3cc(F)ccc32)cc(OC)c1OC [Compound E, (Z)-5-Fluoro-2-methyl-1-(3,4,5-trimethoxybenzylidene)-3-indenylacetamide, N-benzyl] | − | 75% | ++++ |  | neither test compound B and E significantly inhibit COX-I | < 25% | 7.10 | < 4.60 | do not bind to the cGMP binding sites of PDE5 | Ratio (IC50 Peak A/Peak B) [10]: 1.0; competitive (with cGMP) binding to PDE 5 (peak A) [10]: does competitively (with cGMP) bind; competitive (with cGMP) binding to PDE peak B [11]: competitively (with cGMP) binds; IC50 (Colo 205): 1.62 µM; IC50 (PC-3): 0.9 µM |
| O=C(O)C1CCN(c2nc(NCc3ccc4c(c3)OCO4)c3cc(Cl)ccc3n2)CC1 [Compound E4021] |  |  |  | <50% |  |  |  |  | do not bind to the cGMP binding sites of PDE5 | sensitivity of peak B's cGMP PDE activity [12]: resistant; pIC50 ([4]; HT-29 treated for 6 days, SRB assay, read-out: Growth inhibition (IC50)): < 4.00 |
| CCCCCC[C@@H]([C@@H](C)O)n1cnc2c(N)ncnc21 (racemic) [EHNA] |  |  |  |  |  |  |  |  |  | pIC50 ([10]; cGMP hydrolysis, 0.25 μM 3H-cGMP): < 4.00; pIC50 [13]: 5.43; pIC50 ([14]; 2.0 μM cAMP substrate, read-out: IC50, cAMP PDE activity in Peak B): 5.42; pIC50 ([14]; read-out: IC50, cAMP PDE activity in Peak B with rolipram, 2.0 μM cAMP substrate, addition of 10 μM rolipram): 5.60; pIC50 ([14]; read-out: IC50, cGMP PDE activity in Peak B, 2 μM cGMP substrate): 5.80; Apoptosis-inducing activity, Fold induction at 100 μM ([9]; 100 μM): <2.0 fold |
